Results from patent publication US6608032B1, “Medicinal compositions” (Takara Shuzo Co., Ltd., priority 1999, dated 2003).

What was measured:
human IL-10 = assay: IL-10 production from DSEK cells (ELISA); assay type: cell-based; settings: DSEK culture supernatant
Procedure: (§1) 150 μl of a culture supernatant was collected from a well containing a culture of DSEK cells over time at intervals of 24 hours. The effects of agarobiose on the production (expression) of cytokines (human TGF-β, human FGF-β and human IL-10) from the cell were determined using ELISA kits specific for the respective cytokines (from Intergen for human FGF-β and human IL-10; and from Promega for human TGF-β).

celiac macrophages = assay: TPA-induced IL-6 production in celiac macrophages; assay type: cell-based, mouse; settings: 5 μl of 20, 10 or 5 mM solution per 500 μl; 14 hours; concentration dependent; FIG. 16
Procedure: 4 ml of RPMI 1640 medium (Bio Whittaker, 12-702F) containing 10% fetal calf serum was intraperitoneally injected into ddy mouse (Japan SLC, female, 7 weeks old) The medium was removed after extensive massage to obtain celiac cells. The celiac cells were suspended in RPMI 1640 medium containing 10% fetal calf serum at a concentration of 10^6 cells/ml. 500 μl of the suspension was added to each well of a 48-well microtiter plate and the plate was incubated at 37° C. for 2 hours in the presence of 5% CO2. Adhesive cells obtained by removing the culture supernatant were used as celiac macrophaaes. 500 μl of fresh Dulbecco's modified Eagle's medium (Bio Whittaker, 12-917F) without Phenol Red containing 10% fetal calf serum and 2 mM L-glutamine was added to each well. 5 μl of 20, 10 or 5 mM aqueous solution of agarobiose obtained in Referential Example 1 and 5 μl of 10 μg/ml aqueous solution of 12-O-tetradecanoylphorbol 13-acetate (TPA, Gibco, 13139-019) were added to the well. The plate was incubated for additional 14 hours, and the culture supernatant was then collected. The content of interleukin 6 (IL-6) in the culture supernatant was measured using enzyme immuno sandwich assay (ELISA; Matched antibody Pair Sample Pak-mouse IL6, Endogen). As a control, a group to which the agarobiose aqueous solution or the TPA aqueous solution was not added was provided. […]

human TGF-β = assay: TGF-β production from DSEK cells (ELISA); assay type: cell-based; settings: DSEK culture supernatant
Procedure: as §1

RAW264.7 cells = assay: Prostaglandin E2 generation by crude enzyme fraction of RAW264.7 cells pre-treated with sample and LPS; assay type: cell-based; settings: cells treated with 200 μl of 10 mM sample per 20 ml, 5 hours before LPS
Procedure: (1) RAW264.7 cells (ATCC TIB 71) were suspended in Dulbecco's modified Eagle's medium (Bio Whittaker, 12-604F) containing 10% fetal calf serum (Gibco) at a concentration of 1×10^6 cells/ml. 20 ml of the suspension was added to a 10-cm Petri dish and the dish was incubated at 37° C. overnight in the presence of 5% CO2. 200 μl of a solution containing agarohexaose or DGE (obtained in Example 15-(2) below) at a concentration of 10 mM in water was added to the dish. The dish was incubated for 5 hours. 200 μl of a solution containing lipopolysaccharide (LPS, Sigma, L-2012) at a concentration of 100 μg/ml in water was added thereto. The dish was incubated for additional 12 hours. As a control, 200 μL of water was added in place of the sample. The cells were recovered by detaching the cells from the plate using a scraper and suspended in 0.1 M tris buffer (pH 8.0) containing 1 μg/ml pepstatin A (Sigma, P5318), 1 μg/ml leupeptin (Sigma, L2884) and 1 mM phenylmethylsulfonyl fluoride (Nacalai Tesque, 273-27). The cell membrane was destroyed by sonication. A supernatant collected by centrifugation was used as a crude enzyme fraction. The content of protein in the crude enzyme fraction was determined using Micro BCA Protein Assay Reagent (a product of Pierce sold by Takara Shuzo, P7411). 2.5 μL of 200 mM aqueous solution of glutathione (Nacalai Tesque, 170-50), 2.5 μL of a suspension containing L-adrenaline (Nacalai Tesque, 010-04) at a concentration of 200 mM in water, and 1 μL of 3 mM solution of arachidonic acid (Cayman, 90010.1) or 1 μL of 100 μg/mL solution of prostaglandin H2 (Cayman, 17020) were added to 100 μL of the sample from the crude enzyme fraction prepared as described above. The mixture was reacted at 37° C. for 30 minutes. The reaction was stopped by heating at 100° C. for 2 minutes. The content of prostaglandin E2 in the reaction mixture was measured using Prostaglandin E2 ELISA Kit (Neogen, 404110).

Compound	production of human IL-10 (human IL-10)	TPA-induced IL-6 production (celiac macrophages)	production of human TGF-β (human TGF-β)	production of prostaglandin E2, arachidonic acid added (RAW264.7 cells; FIG. 13)	production of prostaglandin E2, prostaglandin H2 added (RAW264.7 cells; FIG. 14)
OC[C@H]1O[C@@H](O[C@H]2[C@H]3OC[C@@H]2OC(O)[C@H]3O)[C@H](O)[C@@H](O)[C@H]1O (mixture of isomers) [Agarobiose, agarobiose]	activities of inhibiting the production	suppression of TPA-induced IL-6 production	activities of inhibiting the production		
OCC1OC(OC2C3COC2C(O)C(OC2C(O)C(CO)OC(OC4C5COC4C(O)C(OC4C(O)C(CO)OC(OC6C7COC6C(O)C(O)O7)C4O)O5)C2O)O3)C(O)C(O)C1O (centres unmarked) [Agarohexaose, agarohexaose]				suppressed as compared with the control	suppressed as compared with the control
